From US5229267A, “Assay for evaluating inhibition of PMN elastase by N-substituted azetidinones” (Merck & Co., Inc., priority 1991, dated 1993)

System: antibody R674
Assay: RIA: displacement of tritium labeled Compound A' or B' from polyclonal rabbit antiserum R674
Format: binding, New Zealand white rabbits
Conditions: up to 10 μM (the highest concentration tested)
Description: Antibodies for the reactivation product of formula II were produced by the methods described in Basic methodology of Vituakaitis, Meth. Enzymol. 73: 46-52 (1981). Specifically, New Zealand white rabbits were immunized with Compound C (the para succinyl aminomethyl derivative of compound B'), coupled to thyroglobulin. See Scheme 3. The initial immunizations employed 1 mg of the immunogen conjugate per ml saline homogenized with 1 ml of Freund's complete adjuvant. Rabbits received a total of 0.4 ml divided over 2 intramuscular sites. Animals were boosted 30 days later receiving 0.5 mg immunogen per ml saline homogenized with 1 ml Freund's Incomplete adjuvant. […]
Antibody titer, antibody sensitivity, antibody specificity and the presence of and concentration of reactivation product in body fluids were determined by a radioimmunoassay (RIA). […]
Non-antibody-bound radioactive isotope was removed from the reaction mixture by it's absorption onto dextran-coated activated charcoal. […] The supernatant fluid was decanted into 9 ml of AQUASOL-2 scintillation fluid and radioactivity counted in a beta-counter. […] Percent specific binding was determined by subtracting the value for non-specific binding from the value of total antiserum binding and then dividing by the total radioactivity added.
Sensitivity of the antisera R674 (2nd bleed) was determined in the above RIA. […]

NC(N)=O [Urea, urea]
effect in RIA (displacement): without affect

N=C(N)NCCC[C@H](N)C(=O)O [arginine]
effect in RIA (displacement): without affect
